These results are taken from paper PMC7389528, “Anti-tubercular derivatives of rhein require activation by the monoglyceride lipase Rv0183” (The Cell Surface, 2020).

Assay [1] has as its target T1, WT Rv0183 (BCG_0220) (Mycobacterium tuberculosis, UniProt O07427).
T1 construct: poly-histidine (pET28a vector-encoded) (N); made in house; host or cells: E. coli SHuffle T7 (K12), pET28a
Format: biochemical. The following applies: 10 μM WT Rv0183, 5 μg compound, 37 °C, 1 h.

The target in assay [2] is Rv0183-VAAQD137D (Mycobacterium tuberculosis, UniProt O07427, DEL137-140). Format: biochemical, M. bovis BCG.
The target in assay [3] is Rv0183-S172P (Mycobacterium tuberculosis, UniProt O07427, S172P). It counts as biochemical, M. bovis BCG.
Assay [4] concerns M. bovis BCG HTB-04 mutant 2 (BCG_0220-S172P). Format: cell-based.
Assay [5] relates to M. bovis BCG. It counts as cell-based.
Assay [6] relates to Mtb clinical isolate 12611. Nature of the assay: microbe, parasite or virus in culture. It counts as cell-based. The following applies: Mycobacterium tuberculosis.
In assay [7] the test system is Mtb clinical isolate 14231. Nature of the assay: microbe, parasite or virus in culture. It counts as cell-based. The following applies: Mycobacterium tuberculosis.

Each structure is given as a SMILES string. Converted amounts (≈) assume the structure as drawn. “And” between values parts separate entries of the source, which are not always exact repeats. Equal entries are not always repeated. “Also recorded” adds a separate entry of the source.

For the molecule `O=C(O)c1cc(O)c2c(c1)C(=O)c1cccc(O)c1C2=O` [Rhein, rhein], the “enzyme activity on compound (TLC)” value in assay [1], in assay [2] and in assay [3] was “no apparent activity” throughout.

As a reminder, the IC50 is the concentration that inhibits the measured activity by half. A lower IC50 goes with higher potency. For the molecule `CC(=O)Oc1cccc2c1C(=O)c1c(OC(C)=O)cc(C(=O)OCCCCCl)cc1C2=O` [HTB-04], the IC50 in assay [4] was 6.23 µM and 3.51 µM. The frequency of resistance in assay [5] is given as 85 × 10^-8. Also, the MIC stood at 3.66 µM (≈ 1.68 µg/mL) in assay [6] and 2.04 µM (≈ 0.936 µg/mL) in assay [7]. Moreover, the “enzyme activity on compound (TLC)” value in assay [1] was “partially hydrolyzed to rhein; also recorded: inconclusive”.

Take `NNC(=O)c1ccncc1` [INH, isoniazid, reference compound]: the results for the MIC in assay [6] and in assay [7] were 142 µM (≈ 19.5 µg/mL) and above 292 µM, respectively.

Turning to `O=C(OCCCCCl)c1cc(O)c2c(c1)C(=O)c1cccc(O)c1C2=O` [HTB-03], the frequency of resistance in assay [5] was 83 × 10^-8 and 100 × 10^-8. Moreover, the MIC in assay [6] turned out to be 2.64 µM (≈ 0.989 µg/mL); in assay [7], 2.4 µM (≈ 0.899 µg/mL). Also, the entries for the “enzyme activity on compound (TLC)” value in assay [1], in assay [2] and in assay [3] were “converted to rhein”, “minimal” and “no activity”, respectively.
